Data reported in patent US20190264193A1, “PROTEIN ENGINEERING METHODS” (Caribou Biosciences, Inc., priority 2016, published 2019).

How the values were obtained:
DNA-PK [1] = target: T1, DNA-PK (Homo sapiens, UniProt P78527); assay: NU7441 five point dose response on DNA repair patterns after sgRNP nucleofection; assay type: cell-based; details: HEK293 T cells
Method: In order to assess whether compounds can alter the DNA repair pathways, the following experiment was conducted with methods as described in van Overbeek et al., Molecular Cell (2016) http://dx.doi.org/10.1016/j.molcel.2016.06.037. Briefly, to test the hypothesis that suppression of c-NHEJ would alter the DNA repair landscapes, favoring MMEJ repair outcomes, a chemical inhibitor of DNA-PK, NU7441, was added to HEK293 T cells one hour post nucleofection in a five point dose response. Genomic lysate was harvested 48 hours post nucleofection and processed.
As inhibitor concentration increased, the mean frequency of single base insertions and small deletions (<3 base pairs) decreased, whereas the mean frequency of a subset of large deletions (>3 base pairs) present in the DNA repair profiles increased. This experiment evidences that the suppression of c-NHEJ enhances DNA repair by MMEJ pathways after DSB formation by Cas9.

DNA-PK [2] = target: T1, DNA-PK; assay: DNA repair outcomes after Cas9 cleavage by amplicon sequencing, HEK293 plus NU7441; assay type: cell-based; details: JAK1 target site; 48 hours after nucleofection of sgRNP in HEK293 plus NU7441 (FIG. 6F)
Method: In order to assess DNA repair outcomes in human cells, the following experiment was conducted using methods as described in van Overbeek et al., Molecular Cell (2016) http://dx.doi.org/10.1016/j.molcel.2016.06.037. Briefly, the repair outcomes following Cas9 cleavage of double-stranded DNA, which result in blunt end products, were profiled using computational tools developed to categorize indels from a cell-based assay. To this end, HEK293, K562 and CCRF-CEM cells were transfected with pre-assembled complexes of Cas9 protein and sgRNA (single-guide RNA ribonucleoprotein complexes (sgRNPs). The Cas9/sgRNA complexes used were prepared as described in van Overbeek et al., Molecular Cell (2016) http://dx.doi.org/10.1016/j.molcel.2016.06.037. DNA repair patterns following Cas9 cleavage were analyzed by amplicon sequencing at time points as shown in FIGS. 6A-6F.
Sequencing reads were assigned to a specific indel class based on the indel type (insertion or deletion), start site, and length (or to the wild-type class), and then the frequency of each class was calculated as a fraction of aligned reads or as a fraction of mutant reads. […]

[3] = as inhibitor concentration increased

T1 sequence (P78527 whole entry): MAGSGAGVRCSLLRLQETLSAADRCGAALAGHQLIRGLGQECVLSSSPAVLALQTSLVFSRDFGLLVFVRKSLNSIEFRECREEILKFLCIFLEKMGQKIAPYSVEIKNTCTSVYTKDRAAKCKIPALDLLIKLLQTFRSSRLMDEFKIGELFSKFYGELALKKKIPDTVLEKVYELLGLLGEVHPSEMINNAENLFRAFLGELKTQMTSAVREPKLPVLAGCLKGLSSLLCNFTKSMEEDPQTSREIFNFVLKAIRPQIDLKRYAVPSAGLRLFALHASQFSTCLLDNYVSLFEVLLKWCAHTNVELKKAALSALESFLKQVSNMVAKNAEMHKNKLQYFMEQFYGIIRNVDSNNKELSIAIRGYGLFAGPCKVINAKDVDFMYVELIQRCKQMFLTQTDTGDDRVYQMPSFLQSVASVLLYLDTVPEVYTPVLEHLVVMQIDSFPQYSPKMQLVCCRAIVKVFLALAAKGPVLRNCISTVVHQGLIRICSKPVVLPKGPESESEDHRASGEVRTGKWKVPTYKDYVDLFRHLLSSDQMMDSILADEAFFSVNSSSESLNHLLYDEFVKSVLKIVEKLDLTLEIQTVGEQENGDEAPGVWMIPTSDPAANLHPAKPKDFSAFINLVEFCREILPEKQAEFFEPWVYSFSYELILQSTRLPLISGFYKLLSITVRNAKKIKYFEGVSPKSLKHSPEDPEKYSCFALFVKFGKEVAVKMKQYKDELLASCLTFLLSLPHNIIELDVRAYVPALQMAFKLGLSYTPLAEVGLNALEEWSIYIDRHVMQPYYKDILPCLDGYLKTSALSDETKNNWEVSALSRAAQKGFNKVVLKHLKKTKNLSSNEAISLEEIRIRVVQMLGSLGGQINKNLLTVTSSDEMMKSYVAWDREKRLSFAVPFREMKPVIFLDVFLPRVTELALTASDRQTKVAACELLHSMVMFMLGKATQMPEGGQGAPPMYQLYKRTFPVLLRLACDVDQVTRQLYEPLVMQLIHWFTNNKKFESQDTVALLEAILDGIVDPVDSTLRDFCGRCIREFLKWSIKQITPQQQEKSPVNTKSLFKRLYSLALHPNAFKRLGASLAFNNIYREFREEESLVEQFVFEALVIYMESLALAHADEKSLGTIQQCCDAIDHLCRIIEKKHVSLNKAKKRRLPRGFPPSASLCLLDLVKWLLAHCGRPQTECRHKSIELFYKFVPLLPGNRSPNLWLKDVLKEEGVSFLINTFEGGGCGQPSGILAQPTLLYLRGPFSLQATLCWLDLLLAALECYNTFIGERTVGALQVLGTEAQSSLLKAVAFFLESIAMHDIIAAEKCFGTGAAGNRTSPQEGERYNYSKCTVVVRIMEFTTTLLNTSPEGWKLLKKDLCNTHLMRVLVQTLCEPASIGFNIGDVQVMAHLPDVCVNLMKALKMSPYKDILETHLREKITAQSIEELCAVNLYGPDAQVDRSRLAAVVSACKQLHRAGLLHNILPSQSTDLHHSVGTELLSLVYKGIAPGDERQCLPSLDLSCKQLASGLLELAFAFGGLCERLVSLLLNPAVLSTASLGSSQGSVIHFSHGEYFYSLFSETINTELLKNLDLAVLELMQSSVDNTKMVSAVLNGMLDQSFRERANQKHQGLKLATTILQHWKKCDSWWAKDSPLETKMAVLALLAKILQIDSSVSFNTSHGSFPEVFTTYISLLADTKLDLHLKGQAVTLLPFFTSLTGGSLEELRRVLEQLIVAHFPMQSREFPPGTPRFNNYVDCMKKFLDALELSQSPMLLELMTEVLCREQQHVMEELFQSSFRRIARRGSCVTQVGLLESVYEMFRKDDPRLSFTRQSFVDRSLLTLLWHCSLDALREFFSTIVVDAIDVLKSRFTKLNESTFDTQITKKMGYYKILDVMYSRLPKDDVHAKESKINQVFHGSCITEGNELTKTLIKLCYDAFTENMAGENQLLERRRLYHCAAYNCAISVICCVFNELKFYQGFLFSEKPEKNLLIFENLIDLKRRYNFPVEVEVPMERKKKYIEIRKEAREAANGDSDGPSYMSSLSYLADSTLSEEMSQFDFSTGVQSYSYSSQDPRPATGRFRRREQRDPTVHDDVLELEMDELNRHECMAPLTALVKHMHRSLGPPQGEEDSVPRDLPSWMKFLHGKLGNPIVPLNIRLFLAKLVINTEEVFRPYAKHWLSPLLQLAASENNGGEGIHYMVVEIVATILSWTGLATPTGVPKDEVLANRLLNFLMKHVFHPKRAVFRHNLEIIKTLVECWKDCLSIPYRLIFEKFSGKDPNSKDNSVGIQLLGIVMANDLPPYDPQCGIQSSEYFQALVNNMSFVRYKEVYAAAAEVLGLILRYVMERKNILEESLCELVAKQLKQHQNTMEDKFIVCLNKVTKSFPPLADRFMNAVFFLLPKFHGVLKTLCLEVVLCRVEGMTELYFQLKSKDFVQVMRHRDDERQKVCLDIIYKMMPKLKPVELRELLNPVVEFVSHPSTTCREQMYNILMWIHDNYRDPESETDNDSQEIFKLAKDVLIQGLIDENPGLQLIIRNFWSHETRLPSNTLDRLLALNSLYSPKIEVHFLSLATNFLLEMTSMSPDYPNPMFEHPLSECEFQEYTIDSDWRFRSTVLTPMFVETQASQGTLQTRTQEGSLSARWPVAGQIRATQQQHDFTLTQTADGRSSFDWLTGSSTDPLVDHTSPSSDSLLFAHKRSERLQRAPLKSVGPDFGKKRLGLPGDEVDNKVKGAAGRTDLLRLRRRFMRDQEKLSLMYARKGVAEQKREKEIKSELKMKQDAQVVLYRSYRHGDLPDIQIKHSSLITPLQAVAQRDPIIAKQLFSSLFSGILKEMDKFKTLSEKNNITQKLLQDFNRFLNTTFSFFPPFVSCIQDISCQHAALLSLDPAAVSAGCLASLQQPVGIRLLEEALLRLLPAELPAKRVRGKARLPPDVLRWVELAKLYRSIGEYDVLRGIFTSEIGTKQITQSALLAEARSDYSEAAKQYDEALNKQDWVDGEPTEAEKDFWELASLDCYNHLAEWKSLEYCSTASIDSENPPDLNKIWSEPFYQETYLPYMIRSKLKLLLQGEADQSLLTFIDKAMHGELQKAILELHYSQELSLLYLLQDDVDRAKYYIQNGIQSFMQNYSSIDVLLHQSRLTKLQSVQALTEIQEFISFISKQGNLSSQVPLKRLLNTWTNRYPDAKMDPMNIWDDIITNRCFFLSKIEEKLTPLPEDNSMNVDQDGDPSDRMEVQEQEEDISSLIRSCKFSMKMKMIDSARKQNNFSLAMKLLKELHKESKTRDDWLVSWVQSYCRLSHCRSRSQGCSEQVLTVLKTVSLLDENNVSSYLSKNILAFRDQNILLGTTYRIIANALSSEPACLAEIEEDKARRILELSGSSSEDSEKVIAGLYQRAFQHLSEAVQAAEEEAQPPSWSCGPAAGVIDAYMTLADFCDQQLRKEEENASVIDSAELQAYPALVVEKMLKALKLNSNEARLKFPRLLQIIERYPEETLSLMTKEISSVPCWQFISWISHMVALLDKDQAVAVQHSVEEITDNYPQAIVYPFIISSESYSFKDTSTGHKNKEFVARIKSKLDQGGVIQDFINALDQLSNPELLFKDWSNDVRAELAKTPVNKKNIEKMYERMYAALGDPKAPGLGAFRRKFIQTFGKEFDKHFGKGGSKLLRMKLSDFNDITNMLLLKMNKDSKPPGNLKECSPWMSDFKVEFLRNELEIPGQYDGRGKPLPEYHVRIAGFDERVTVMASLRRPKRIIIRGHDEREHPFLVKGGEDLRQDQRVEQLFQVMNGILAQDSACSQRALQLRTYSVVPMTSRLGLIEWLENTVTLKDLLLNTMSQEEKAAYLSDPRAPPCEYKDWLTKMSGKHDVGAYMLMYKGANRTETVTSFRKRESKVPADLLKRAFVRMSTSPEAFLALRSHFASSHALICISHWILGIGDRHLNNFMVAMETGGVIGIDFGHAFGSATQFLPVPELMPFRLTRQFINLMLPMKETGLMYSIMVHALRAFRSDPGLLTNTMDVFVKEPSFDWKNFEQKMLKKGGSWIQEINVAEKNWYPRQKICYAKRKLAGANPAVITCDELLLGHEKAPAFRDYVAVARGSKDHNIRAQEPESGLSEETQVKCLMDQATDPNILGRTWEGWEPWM

O=c1cc(N2CCOCC2)oc2c(-c3cccc4c3sc3ccccc34)cccc12 [NU7441]
mean frequency of a subset of large deletions (>3 base pairs) (DNA-PK [1]; [3]): increased | mean frequency of single base insertions and small deletions (<3 base pairs) (DNA-PK [1]; [3]): decreased | change of the DNA repair patterns compared with untreated samples (DNA-PK [1]; lowest concentration of inhibitor 1.56 μM, 12 different target sites, added one hour post nucleofection, harvested 48 hours): a change of the DNA repair patterns at 12 different target sites compared with untreated samples was apparent | DNA repair outcomes (classes and frequency) compared with FIG. 6A (HEK293 without inhibitor) (DNA-PK [2]): different DNA repair outcomes
